30 compounds from EP2951180B1, “2,6,7,8 SUBSTITUTED PURINES AS HDM2 INHIBITORS” (Merck Sharp & Dohme Corp., priority 2013, dated 2014) can be followed below.

Structures are written as SMILES. pIC50: −log10 of the molar value.

T1 sequence (Q00987 17-125): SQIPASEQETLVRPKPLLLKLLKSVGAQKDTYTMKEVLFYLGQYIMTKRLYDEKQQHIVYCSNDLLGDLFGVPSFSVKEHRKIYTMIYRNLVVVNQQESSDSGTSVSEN

One assay addresses T1, HDM2 (Homo sapiens, UniProt Q00987).
T1 construct: Thioredoxin (N); made in house; host or cells: E. coli strain BL21(DE3)Rosetta
Nature of the assay: HDM2 FRET assay (inhibition of binding of FITC labeled p53-pocket peptide to HDM2). The settings on record: Table 6; read-out: FRET IC50. The method in brief: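 Signal is read as the 520/495 nm emission ratio and converted to percent inhibition; nonlinear sigmoidal regression yields IC50. The assay mixes HDM2 (0.5 nM), FITC-p53 peptide (3 nM) and Tb anti-His antibody (0.25 nM) at 0.1% DMSO.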
Broadly, the pIC50 is −log10 of the IC50, conventionally taken in molar units. Take `Cc1cccc(-c2nc3nc(C(=O)O)nc(N[C@H](C)C4CCC4)c3n2Cc2ccc(Cl)cc2)c1` [Example 6.2, 7-(4-chlorobenzyl)-6-{[(1R)-1-cyclobutylethyl]amino}-8-(3-methylphenyl)-7H-purine-2-carboxylic acid]: the pIC50 is 7.86. Still for that read-out and setting: for `Cc1cccc(-c2nc3nc(C(=O)O)nc(N[C@H](C)C4CCCC4)c3n2Cc2ccc(Cl)cc2)c1` [Example 6.3, 7-(4-chlorobenzyl)-6-{[(1R)-1-cyclopentylethyl]amino}-8-(3-methylphenyl)-7H-purine-2-carboxylic acid] the value was 7.50; for `Cc1cccc(-c2nc3nc(C(=O)O)nc(N[C@H](C)C4CCCCC4)c3n2Cc2ccc(Cl)cc2)c1` [Example 6.4, 7-(4-chlorobenzyl)-6-{[(1R)-1-cyclohexylethyl]amino}-8-(3-methylphenyl)-7H-purine-2-carboxylic acid], 5.99; for `Cc1cccc(-c2nc3nc(C(=O)O)nc(N[C@H](C)C4CC4)c3n2Cc2ccc(Br)cc2)c1` [Example 6.5, 7-(4-bromobenzyl)-6-{[(1R)-1-cyclopropylethyl]amino}-8-(3-methylphenyl)-7H-purine-2-carboxylic acid], 6.63. Take `Cc1cccc(-c2nc3nc(C(=O)O)nc(NC(C)(C)C4CC4)c3n2Cc2ccc(Cl)cc2)c1` [Example 6.6, 7-(4-chlorobenzyl)-6-[(1-cyclopropyl-1-methylethyl)amino]-8-(3-methylphenyl)-7H-purine-2-carboxylic acid]: the pIC50 was 5.78. For `Cc1cccc(-c2nc3nc(C(=O)O)nc(N[C@H](C)C4CCC4)c3n2Cc2ccc(Br)cc2)c1` [Example 6.7, 7-(4-bromobenzyl)-6-{[(1R)-1-cyclobutylethyl]amino}-8-(3-methylphenyl)-7H-purine-2-carboxylic acid], the pIC50 is 7.12. As for `Cc1cccc(-c2nc3nc(C(=O)O)nc(NC4CCCCC4C)c3n2Cc2ccc(C(F)(F)F)cc2)c1` (stereo not drawn) [Example 6.8, 6-[(2-methylcyclohexyl)amino]-8-(3-methylphenyl)-7-[4-(trifluoromethyl)benzyl]-7H-purine-2-carboxylic acid], the pIC50 was 6.64. On to `Cc1cccc(-c2nc3nc(C(=O)O)nc(NC4CCCCC4C)c3n2Cc2ccc(Br)cc2)c1` (stereo not drawn) [Example 6.9, 7-(4-bromobenzyl)-6-[(2-methylcyclohexyl)amino]-8-(3-methylphenyl)-7H-purine-2-carboxylic acid], for which the pIC50 was 7.65.

For `Cc1cccc(-c2nc3nc(C(=O)O)nc(NC4CCCCC4C)c3n2Cc2ccc(Br)cc2)c1` (stereo not drawn) [Example 6.10, 7-(4-bromobenzyl)-6-[(2-methylcyclohexyl)amino]-8-(3-methylphenyl)-7H-purine-2-carboxylic acid], the pIC50 is 5.98. As for `Cc1cccc(-c2nc3nc(C(=O)O)nc(N(C)C(C)C4CC4)c3n2Cc2ccc(Cl)cc2)c1` (stereo not drawn) [Example 6.11, 7-(4-chlorobenzyl)-6-[(1-cyclopropylethyl)(methyl)amino]-8-(3-methylphenyl)-7H-purine-2-carboxylic acid], the pIC50 is 5.85. Consider `O=C(O)c1nc(NCC2CC2)c2c(n1)nc(-c1cccc(Cl)c1)n2Cc1ccc(Cl)cc1` [Example 6.12, 7-(4-chlorobenzyl)-8-(3-chlorophenyl)-6-[(cyclopropylmethyl)amino]-7H-purine-2-carboxylic acid], for which the pIC50 was 5.39. Turning to `C[C@@H](Nc1nc(C(=O)O)nc2nc(-c3ccc4sccc4c3)n(Cc3ccc(C(F)(F)F)cc3)c12)C1CC1` [Example 6.13, 8-(1-benzothiophen-5-yl)-6-{[(1R)-1-cyclopropylethyl]amino}-7-[4-(trifluoromethyl)benzyl]-7H-purine-2-carboxylic acid], the pIC50 was 7.79. Still for that read-out and setting: with `C[C@@H](Nc1nc(C(=O)O)nc2nc(-c3ccc4sccc4c3)n(Cc3ccc(C(F)(F)F)cc3)c12)C1CCC1` [Example 6.14, 8-(1-benzothiophen-5-yl)-6-{[(1R)-1-cyclobutylethyl]amino}-7-[4-(trifluoromethyl)benzyl]-7H-purine-2-carboxylic acid] the figure was 7.45; with `Cc1cccc(-c2nc3nc(C(=O)O)nc(N[C@H](C)C4CC4)c3n2Cc2ccc(F)c(Cl)c2)c1` [Example 6.15, 7-(3-chloro-4-fluorobenzyl)-6-{[(1R)-1-cyclopropylethyl]amino}-8-(3-methylphenyl)-7H-purine-2-carboxylic acid], 6.43; with `Cc1cccc(-c2nc3nc(C(=O)O)nc(N[C@H](C)C4CC4)c3n2Cc2ccc(Cl)c(Cl)c2)c1` [Example 6.16, 6-{[(1R)-1-cyclopropylethyl]amino}-7-(3,4-dichlorobenzyl)-8-(3-methylphenyl)-7H-purine-2-carboxylic acid], 6.33.

As to `Cc1cccc(-c2nc3nc(C(=O)O)nc(N[C@H](C)C4CC4)c3n2Cc2ccc(Cl)c(F)c2)c1` [Example 6.17, 7-(4-chloro-3-fluorobenzyl)-6-{[(1R)-1-cyclopropylethyl]amino}-8-(3-methylphenyl)-7H-purine-2-carboxylic acid], the pIC50 was 7.59. With `Cc1cccc(-c2nc3ncnc(NC(CC(=O)O)C4CC4)c3n2Cc2ccc(C(F)(F)F)cc2)c1` (stereo not drawn) [Example 6.18, 3-cyclopropyl-3-({8-(3-methylphenyl)-7-[4-(trifluoromethyl)benzyl]-7H-purin-6-yl}amino)propanoic acid], the pIC50 was 5.28. `Cc1cccc(-c2nc3nc(C(=O)O)nc(NC4CCC(C)CC4)c3n2Cc2ccc(C(F)(F)F)cc2)c1` (stereo not drawn) [Example 6.19, 6-[(4-methylcyclohexyl)amino]-8-(3-methylphenyl)-7-[4-(trifluoromethyl)benzyl]-7H-purine-2-carboxylic acid]: the pIC50 is 6.06. Regarding `Cc1cccc(-c2nc3nc(C(=O)O)nc(NC4CCCC(C)C4)c3n2Cc2ccc(C(F)(F)F)cc2)c1` (stereo not drawn) [Example 6.20, 6-[(3-methylcyclohexyl)amino]-8-(3-methylphenyl)-7-[4-(trifluoromethyl)benzyl]-7H-purine-2-carboxylic acid], the negative logarithm of the IC50 (pIC50) is 6.25.

For `Cc1cccc(-c2nc3nc(C(=O)O)nc(NC4CCCC4C)c3n2Cc2ccc(C(F)(F)F)cc2)c1` (stereo not drawn) [Example 6.21, 6-[(2-methylcyclopentyl)amino]-8-(3-methylphenyl)-7-[4-(trifluoromethyl)benzyl]-7H-purine-2-carboxylic acid], the pIC50 is 6.37. In the case of `Cc1cccc(-c2nc3nc(C(=O)O)nc(NC4CCCC4)c3n2Cc2ccc(C(F)(F)F)cc2)c1` [Example 6.22, 6-(cyclopentylamino)-8-(3-methylphenyl)-7-[4-(trifluoromethyl)benzyl]-7H-purine-2-carboxylic acid], the pIC50 is 6.19. On to `Cc1cccc(-c2nc3nc(C(=O)O)nc(N4CCCC4)c3n2Cc2ccc(C(F)(F)F)cc2)c1` [Example 6.23, 8-(3-methylphenyl)-6-pyrrolidin-1-yl-7-[4-(trifluoromethyl)benzyl]-7H-purine-2-carboxylic acid], for which the pIC50 was 5.08. For `Cc1cccc(-c2nc3nc(C(=O)O)nc(NC(C4CC4)C4CC4)c3n2Cc2ccc(C(F)(F)F)cc2)c1` [Example 6.24, 6-[(dicyclopropylmethyl)amino]-8-(3-methylphenyl)-7-[4-(trifluoromethyl)benzyl]-7H-purine-2-carboxylic acid], the pIC50 was 6.48. With `Cc1cccc(-c2nc3nc(C(=O)O)nc(NCCc4ccccc4)c3n2Cc2ccc(C(F)(F)F)cc2)c1` [Example 6.25, 8-(3-methylphenyl)-6-[(2-phenylethyl)amino]-7-[4-(trifluoromethyl)benzyl]-7H-purine-2-carboxylic acid], the pIC50 was 5.29. As for `Cc1cccc(-c2nc3nc(C(=O)O)nc(N[C@@H](C)c4cccc(Cl)c4)c3n2Cc2ccc(C(F)(F)F)cc2)c1` [Example 6.26, 6-{[(1S)-1-(3-chlorophenyl)ethyl]amino}-8-(3-methylphenyl)-7-[4-(trifluoromethyl)benzyl]-7H-purine-2-carboxylic acid], the pIC50 is 5.16.

`Cc1cccc(-c2nc3nc(C(=O)O)nc(N[C@H](C)c4cccc(Cl)c4)c3n2Cc2ccc(C(F)(F)F)cc2)c1` [Example 6.27, 6-{[(1R)-1-(3-chlorophenyl)ethyl]amino}-8-(3-methylphenyl)-7-[4-(trifluoromethyl)benzyl]-7H-purine-2-carboxylic acid]: the pIC50 was 5.63. The same measure, in the same setting: with `Cc1cccc(-c2nc3nc(C(=O)O)nc(NC4CCCCC4)c3n2Cc2ccc(C(F)(F)F)cc2)c1` [Example 6.28, 6-(cyclohexylamino)-8-(3-methylphenyl)-7-[4-(trifluoromethyl)benzyl]-7H-purine-2-carboxylic acid] the figure was 6.23.

Staying with this assay, now noted: Table 11; read-out: FRET IC50.
Regarding `C[C@@H](Nc1nc(-c2noc(=O)[nH]2)nc2nc(N(C)[C@@H]3CCCC[C@@H]3O)n(C[C@H]3CC[C@H](C)CC3)c12)C1CCC1` (stereo in doubt) [Example 11.134, 3-(6-{[(1R)-1-cyclobutylethyl]amino}-8-{[(1R,2S)-2-hydroxycyclohexyl] (methyl)amino}-7-[(trans-4-methylcyclohexyl)methyl]-7H-purin-2-yl)-1,2,4-oxadiazol-5(4H)-one], the pIC50 was 8.02. Regarding `C[C@@H]1OCCN(c2nc3nc(-c4n[nH]c(=O)o4)nc(N[C@H](C)C4CCC4)c3n2C[C@H]2CC[C@H](C)CC2)[C@H]1C` (stereo in doubt) [Example 11.167, 5-(6-{[(1R)-1-cyclobutylethyl]amino}-8-[(trans)-2,3-dimethylmorpholin-4-yl]-7-[(trans-4-methylcyclohexyl)methyl]-7H-purin-2-yl)-1,3,4-oxadiazol-2(3H)-one], the pIC50 was 8.67.

Staying with this assay, now noted: read-out: inh. at 1000 nM (FRET).
Consider `CCC1CCN(c2nc(C(=O)O)nc3nc(-c4cccc(C)c4)n(Cc4ccc(C(F)(F)F)cc4)c23)C1` (stereo not drawn) [Example 6.1, 6-(3-ethylpyrrolidin-1-yl)-8-(3-methylphenyl)-7-[4-(trifluoromethyl)benzyl]-7H-purine-2-carboxylic acid], for which the inhibition at 1 µM came out at 41%.
